Measured values published in ChEMBL document CHEMBL4673371, “Discovery of BAZ1A bromodomain inhibitors with the aid of virtual screening and activity evaluation” (Bioorg Med Chem Lett, 2021).

Key:
[1] = molecular target: T1, Bromodomain adjacent to zinc finger domain protein 1A (Homo sapiens, UniProt Q9NRL2); assay: Binding affinity to recombinant human N-terminal His6-tagged BAZ1A (1446 to 1516 residues) expressed in Escherichia coli BL21 (DE3) cells by MST assay
[2] = molecular target: T1, Bromodomain adjacent to zinc finger domain protein 1A; assay: Binding affinity to recombinant human N-terminal His6-tagged BAZ1A (1446 to 1516 residues) expressed in Escherichia coli BL21 (DE3) cells assessed as change in melting temperature at 25 uM by DSF assay
U-87 MG = assay: Cytotoxicity against human U87 cells assessed as reduction in cell viability incubated for 72 hrs by MTT assay; assay type: functional, cell-based, U-87MG ATCC
Bel-7402 = assay: Cytotoxicity against human BEL7402 cells assessed as reduction in cell viability incubated for 72 hrs by MTT assay; assay type: functional, cell-based; conditions: Bel-7402, 72 h
[3] = Cytotoxicity against human H820 cells assessed as reduction in cell viability incubated for 72 hrs by MTT assay; assay type: functional, cell-based; conditions: NCI-H820, 72 h
NCI-H1975 = assay: Cytotoxicity against human H1975 cells assessed as reduction in cell viability incubated for 72 hrs by MTT assay; assay type: functional, cell-based; conditions: NCI-H1975, 72 h
BT-474 = assay: Cytotoxicity against human BT474 cells assessed as reduction in cell viability incubated for 72 hrs by MTT assay; assay type: functional, cell-based; conditions: BT-474, 72 h
ZR-75-30 = assay: Cytotoxicity against human ZR-75-30 cells assessed as reduction in cell viability incubated for 72 hrs by MTT assay; assay type: functional, cell-based; conditions: ZR-75-30, 72 h
THP-1 = assay: Cytotoxicity against human THP-1 cells assessed as reduction in cell viability incubated for 72 hrs by MTT assay; assay type: functional, cell-based; conditions: THP-1, 72 h

T1 sequence (Q9NRL2 whole entry, the tested form may be a part): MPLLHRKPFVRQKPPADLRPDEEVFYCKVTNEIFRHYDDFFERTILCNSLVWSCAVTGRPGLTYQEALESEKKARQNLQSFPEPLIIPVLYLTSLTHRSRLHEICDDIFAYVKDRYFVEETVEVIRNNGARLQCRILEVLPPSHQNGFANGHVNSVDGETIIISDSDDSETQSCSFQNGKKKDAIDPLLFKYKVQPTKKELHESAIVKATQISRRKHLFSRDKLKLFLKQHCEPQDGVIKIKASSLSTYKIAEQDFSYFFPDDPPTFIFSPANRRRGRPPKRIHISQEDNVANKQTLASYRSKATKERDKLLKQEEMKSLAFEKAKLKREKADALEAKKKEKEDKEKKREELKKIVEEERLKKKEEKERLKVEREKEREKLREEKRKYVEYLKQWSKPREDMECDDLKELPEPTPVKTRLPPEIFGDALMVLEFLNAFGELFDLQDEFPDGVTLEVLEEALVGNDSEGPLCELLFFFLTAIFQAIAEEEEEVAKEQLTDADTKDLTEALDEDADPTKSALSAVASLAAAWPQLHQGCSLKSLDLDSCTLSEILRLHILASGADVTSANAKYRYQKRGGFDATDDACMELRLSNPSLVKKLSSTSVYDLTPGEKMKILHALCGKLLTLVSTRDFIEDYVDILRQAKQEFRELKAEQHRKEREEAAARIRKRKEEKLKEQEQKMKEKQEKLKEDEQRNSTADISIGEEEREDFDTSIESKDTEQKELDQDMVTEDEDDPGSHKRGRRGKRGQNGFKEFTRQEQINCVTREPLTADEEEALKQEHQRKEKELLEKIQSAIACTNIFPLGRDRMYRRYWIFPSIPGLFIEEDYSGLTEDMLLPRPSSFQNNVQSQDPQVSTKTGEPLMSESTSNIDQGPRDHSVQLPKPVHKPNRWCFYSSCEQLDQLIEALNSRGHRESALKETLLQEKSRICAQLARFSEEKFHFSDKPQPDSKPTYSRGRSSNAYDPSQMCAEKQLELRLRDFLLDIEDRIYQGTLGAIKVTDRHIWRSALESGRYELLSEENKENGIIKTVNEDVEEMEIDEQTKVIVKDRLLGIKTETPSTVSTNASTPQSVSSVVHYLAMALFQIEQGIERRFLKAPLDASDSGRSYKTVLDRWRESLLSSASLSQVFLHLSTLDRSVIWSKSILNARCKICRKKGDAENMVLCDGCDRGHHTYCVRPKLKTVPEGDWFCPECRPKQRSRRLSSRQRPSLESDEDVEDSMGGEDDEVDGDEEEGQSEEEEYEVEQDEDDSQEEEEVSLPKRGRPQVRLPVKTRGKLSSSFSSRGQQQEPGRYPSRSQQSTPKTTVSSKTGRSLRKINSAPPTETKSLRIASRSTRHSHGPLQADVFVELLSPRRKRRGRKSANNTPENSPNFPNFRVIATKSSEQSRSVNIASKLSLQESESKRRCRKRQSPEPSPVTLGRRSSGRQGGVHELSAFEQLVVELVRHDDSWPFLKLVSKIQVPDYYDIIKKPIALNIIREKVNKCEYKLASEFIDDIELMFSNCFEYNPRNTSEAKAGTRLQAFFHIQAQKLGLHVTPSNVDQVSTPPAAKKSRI

Compound	Kd [1]	ΔTm [2]	also measured
CN(Cc1cccc([N+](=O)[O-])c1)C(=O)Nc1ccc2nnsc2c1	57.6 µM	1.46 °C	
O=C(Nc1ccc(Cl)c(Cl)c1)Nc1ccc2nnsc2c1	1.57 µM	2.59 °C	
CC(NC(=O)Nc1ccc2nnsc2c1)c1cccc(F)c1 (centres undefined)	8.2 µM	1.62 °C	
O=C(Nc1ccc(C(F)(F)F)cc1)Nc1cccc(O)c1	13.2 µM	3.15 °C	
O=C(Nc1cccc([N+](=O)[O-])c1)Nc1ccc2cccnc2c1	6.68 µM	1.63 °C	
CN(C)c1ccc(NC(=O)Nc2cccc([N+](=O)[O-])c2)cc1	1.76 µM	1.56 °C	
NC(C(=O)Nc1ccc2nnsc2c1)c1ccccc1 (centres undefined)	1.87 µM	1.25 °C	
O=C(Nc1cccc([N+](=O)[O-])c1)Nc1ccc2nccnc2c1	3.09 µM	1.64 °C	
O=C(Nc1ccc2nnsc2c1)N(O)c1ccccc1	16.3 µM	1.68 °C	
O=C(Nc1cccc([N+](=O)[O-])c1)Nc1ccc2c(c1)C(=O)CC2	22 µM	1.16 °C	

Further lines, with some results ahead:

Kd [1]	ΔTm [2]	Compound	also measured
26.6 µM	1.9 °C	Cc1ccc2nc(-c3ccc(NC(=O)c4ccc([N+](=O)[O-])o4)cc3)oc2c1	
3.93 µM	1.94 °C	O=C(Nc1ccc2cncnc2c1)Nc1ccc2nnsc2c1	
0.52 µM	2.73 °C	O=C(Nc1cccc([N+](=O)[O-])c1)Nc1nc(-c2ccccc2)cs1	IC50 (U-87 MG): > 100 µM; IC50 (Bel-7402): > 100 µM; IC50 [3]: 73.7 µM; IC50 (NCI-H1975): 7.7 µM; IC50 (BT-474): 10.7 µM; IC50 (ZR-75-30): 4.29 µM; IC50 (THP-1): 5.08 µM
15.2 µM	1.61 °C	C=C(C)C(=O)Nc1ccc(-c2nc3cc(NC(=O)C(=C)C)ccc3[nH]2)cc1	
25.6 µM	1.2 °C	O=C(NCC(=O)N1CCCCC1)Nc1ccc2nnsc2c1	
1.36 µM	1.62 °C	O=C(Nc1cccc([N+](=O)[O-])c1)Nc1ccc2c(c1)OCCO2	
